Eight compounds from ChEMBL document CHEMBL1147209, “Relationship between quantum-chemical descriptors of proton dissociation and experimental acidity constants of various hydroxylated coumarins. Identification of the biologically active species for xanthine oxidase inhibition” (Eur J Med Chem, 2007) can be followed below.

The term IC50 denotes the midpoint of a concentration-inhibition curve. A higher IC50 goes with a need for much substance.

The series deals with Xanthine dehydrogenase/oxidase (Homo sapiens, UniProt P47989). Nature of the series: Inhibition of xanthine oxidase.
Xanthine dehydrogenase/oxidase, sequence (P47989 whole entry): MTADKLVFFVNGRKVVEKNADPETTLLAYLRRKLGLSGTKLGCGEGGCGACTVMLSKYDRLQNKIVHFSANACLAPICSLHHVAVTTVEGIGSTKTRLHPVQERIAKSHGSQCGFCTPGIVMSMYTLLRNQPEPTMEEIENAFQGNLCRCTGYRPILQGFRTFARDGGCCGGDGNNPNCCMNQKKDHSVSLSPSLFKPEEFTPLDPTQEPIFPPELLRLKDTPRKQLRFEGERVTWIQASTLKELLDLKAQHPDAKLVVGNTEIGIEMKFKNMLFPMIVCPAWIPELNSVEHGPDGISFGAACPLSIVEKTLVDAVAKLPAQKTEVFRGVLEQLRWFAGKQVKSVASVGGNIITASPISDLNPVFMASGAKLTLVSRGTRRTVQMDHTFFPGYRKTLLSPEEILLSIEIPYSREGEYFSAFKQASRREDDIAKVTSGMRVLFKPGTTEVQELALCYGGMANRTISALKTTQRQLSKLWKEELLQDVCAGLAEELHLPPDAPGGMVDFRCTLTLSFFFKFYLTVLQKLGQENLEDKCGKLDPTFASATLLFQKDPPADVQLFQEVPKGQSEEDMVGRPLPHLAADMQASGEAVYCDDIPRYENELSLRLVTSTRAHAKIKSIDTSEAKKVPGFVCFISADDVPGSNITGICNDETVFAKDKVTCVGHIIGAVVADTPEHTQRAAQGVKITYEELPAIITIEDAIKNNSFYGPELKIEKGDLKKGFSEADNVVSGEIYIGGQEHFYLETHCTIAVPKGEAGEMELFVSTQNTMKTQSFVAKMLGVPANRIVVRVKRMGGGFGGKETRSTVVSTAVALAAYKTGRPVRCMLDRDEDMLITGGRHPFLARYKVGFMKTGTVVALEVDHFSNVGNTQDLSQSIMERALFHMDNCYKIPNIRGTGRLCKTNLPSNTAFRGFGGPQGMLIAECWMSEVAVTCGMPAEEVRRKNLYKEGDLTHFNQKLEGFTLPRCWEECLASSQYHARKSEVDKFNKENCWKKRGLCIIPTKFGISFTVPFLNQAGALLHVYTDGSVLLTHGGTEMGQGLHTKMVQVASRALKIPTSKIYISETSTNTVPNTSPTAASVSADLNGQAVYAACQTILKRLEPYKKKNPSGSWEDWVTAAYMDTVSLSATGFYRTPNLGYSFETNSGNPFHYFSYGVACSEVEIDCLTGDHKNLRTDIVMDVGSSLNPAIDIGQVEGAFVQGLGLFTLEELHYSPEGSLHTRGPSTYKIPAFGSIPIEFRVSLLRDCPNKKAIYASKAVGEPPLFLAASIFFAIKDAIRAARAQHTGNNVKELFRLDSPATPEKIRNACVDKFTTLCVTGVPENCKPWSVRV

`O=c1oc2ccccc2cc1O` [3-HYDROXYCOUMARIN]: the IC50 was 131 µM.
On the same count and under the same terms, the result for `O=c1cc(O)c2ccccc2o1` [4-HYDROXYCOUMARINS] reads 195 µM.
Same read-out and setting: with `Cc1cc(=O)oc2cc(O)c(O)cc12` [4-METHYLESCULETIN] the figure was 246 µM.
Consider `COc1cc2ccc(=O)oc2cc1O` [SCOPOLETIN], for which the Activity entry is reported as “Not Active”.
`O=c1ccc2ccc(O)cc2o1` [UMBELLIFERONE] returned an IC50 of 236 µM.
The same measure, in the same setting: the result for `O=c1ccc2cc(O)c(O)cc2o1` [ESCULETIN] reads 8.2 µM.
The same measure, in the same setting: with `COc1cc2oc(=O)ccc2cc1O` [ISOSCOPOLETIN] the figure was 138 µM; with `O=c1ccc2ccc(O)c(O)c2o1` [DAPHNETIN], 390 µM.
